# Assay results reported in patent US12281122B1, “PI3K inhibitors” (Cogent Biosciences, Inc., priority 2023, dated 2025).
# Legend:
# [1] = biological target: PI3Kα (Homo sapiens, UniProt P42336); assay: PI3Kα enzyme assay (Transcreener ADP2 TR-FRET Red Assay); type: biochemical; conditions: purified recombinant full-length protein; 2 hours pre-incubation with compound; read-out: PI3Kα WT IC50
# Experimental: (§1) Activity against PI3Kα and PI3Kα H1047R enzymes were determined in biochemical assays using purified recombinant full-length proteins with the Transcreener ADP^2 TR-FRET Red Assay from Bellbrook Labs. (Catalogue number 3011-10K). Test compounds were dissolved in DMSO and were tested in 11 point 1:3 serial dilutions, typical final concentration range from 50,000 nM to 0.85 nM. Enzymes were pre-incubated with compounds for 2 hours at room temperature prior to initiating the reactions. Assays were initiated with a 2×ATP/PI(4,5)P2 diC8 substrate mixture. After 60 minutes at room temperature, the reactions were quenched with detection reagent and incubated for an additional 60 minutes at room temperature. The plates were read using a multimode reader and the emission ratio of 665 nm to 615 nm was determined. This ratio was converted to percent of control (POC). [1-(high control-sample signal)/(high control-low control)]*100. Wells without compound were used to determine high control values and wells without enzyme were used to determine low control values. The POC values were fit using a four-parameter logistic model and the value where the fit curve was equal to 50 POC was reported as the IC50 using the Signals VitroVivo software package (PerkinElmer). Final assay conditions were: 40 mM HEPES pH 7.5, 20 mM NaCl, 25 mM MgCl2, 0.01% Triton X-100. The enzyme source, catalogue number, final enzyme concentration, and final ATP and PI(4,5)P2 diC8 concentration can be found in the table E10 below.
# [2] = biological target: PI3Kα H1047R (Homo sapiens, UniProt P42336, H1047R); assay: PI3Kα H1047R enzyme assay (Transcreener ADP2 TR-FRET Red Assay); type: biochemical; conditions: purified recombinant full-length protein; 2 hours pre-incubation with compound
# Experimental: as §1
# [3] = system: T47D (PI3Kα-H1047R) cell line; assay: HTRF phospho-AKT(S473) cell assay in T47D cells; type: cell-based, human; conditions: Homo sapiens; T47D (PI3Kα-H1047R) cells, HTRF phospho-AKT(S473), 2 hours compound incubation
# How it was run: (§2)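 HTRF read-out of phospho-AKT(S473) in lysates gave IC50 values after 2 h compound exposure at 37° C. Dose series was 12 points at 1:3, topping at 5 μM for T47D and 10 μM for SKBR3. Only SKBR3 received 70 ng/ml PDGF-BB during the last 15 minutes.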
# [4] = system: SKBR3 (PI3Kα-Wild Type) cell line; assay: HTRF phospho-AKT(S473) cell assay in SKBR3 cells; type: cell-based, human; conditions: Homo sapiens, SK-BR-3; SKBR3 (PI3Kα-Wild Type) cells, HTRF phospho-AKT(S473), 2 hours compound incubation, PDGF-BB stimulated
# How it was run: as §2
# Chain of PI3Kα H1047R (P42336 whole entry H1047R): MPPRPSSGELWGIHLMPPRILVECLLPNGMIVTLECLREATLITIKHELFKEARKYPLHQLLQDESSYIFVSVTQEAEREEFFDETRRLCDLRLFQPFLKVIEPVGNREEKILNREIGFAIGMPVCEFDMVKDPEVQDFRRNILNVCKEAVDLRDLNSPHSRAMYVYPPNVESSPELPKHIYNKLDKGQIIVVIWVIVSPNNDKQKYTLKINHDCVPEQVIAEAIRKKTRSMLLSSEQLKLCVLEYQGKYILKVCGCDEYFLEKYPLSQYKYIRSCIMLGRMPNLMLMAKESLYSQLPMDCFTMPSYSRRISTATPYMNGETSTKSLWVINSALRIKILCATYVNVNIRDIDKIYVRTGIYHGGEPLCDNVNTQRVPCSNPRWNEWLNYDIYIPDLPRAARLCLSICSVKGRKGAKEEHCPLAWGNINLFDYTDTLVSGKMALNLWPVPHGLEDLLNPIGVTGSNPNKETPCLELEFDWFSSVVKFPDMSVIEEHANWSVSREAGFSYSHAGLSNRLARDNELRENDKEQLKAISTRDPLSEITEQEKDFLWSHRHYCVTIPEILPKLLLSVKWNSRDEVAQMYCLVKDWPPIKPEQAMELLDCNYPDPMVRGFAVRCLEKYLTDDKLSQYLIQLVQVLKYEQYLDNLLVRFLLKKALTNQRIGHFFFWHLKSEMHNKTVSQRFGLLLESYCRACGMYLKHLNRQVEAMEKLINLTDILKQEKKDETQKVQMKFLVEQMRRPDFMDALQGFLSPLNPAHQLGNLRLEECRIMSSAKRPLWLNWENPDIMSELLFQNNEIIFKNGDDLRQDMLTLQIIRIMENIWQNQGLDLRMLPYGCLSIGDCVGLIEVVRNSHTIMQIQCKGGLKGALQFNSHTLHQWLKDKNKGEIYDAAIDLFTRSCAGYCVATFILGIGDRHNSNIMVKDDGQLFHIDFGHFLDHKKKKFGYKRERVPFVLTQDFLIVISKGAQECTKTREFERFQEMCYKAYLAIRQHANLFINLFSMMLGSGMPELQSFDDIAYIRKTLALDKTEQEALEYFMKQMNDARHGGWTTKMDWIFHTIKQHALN
# Chain of PI3Kα H1047R (P27986 2-724 partner): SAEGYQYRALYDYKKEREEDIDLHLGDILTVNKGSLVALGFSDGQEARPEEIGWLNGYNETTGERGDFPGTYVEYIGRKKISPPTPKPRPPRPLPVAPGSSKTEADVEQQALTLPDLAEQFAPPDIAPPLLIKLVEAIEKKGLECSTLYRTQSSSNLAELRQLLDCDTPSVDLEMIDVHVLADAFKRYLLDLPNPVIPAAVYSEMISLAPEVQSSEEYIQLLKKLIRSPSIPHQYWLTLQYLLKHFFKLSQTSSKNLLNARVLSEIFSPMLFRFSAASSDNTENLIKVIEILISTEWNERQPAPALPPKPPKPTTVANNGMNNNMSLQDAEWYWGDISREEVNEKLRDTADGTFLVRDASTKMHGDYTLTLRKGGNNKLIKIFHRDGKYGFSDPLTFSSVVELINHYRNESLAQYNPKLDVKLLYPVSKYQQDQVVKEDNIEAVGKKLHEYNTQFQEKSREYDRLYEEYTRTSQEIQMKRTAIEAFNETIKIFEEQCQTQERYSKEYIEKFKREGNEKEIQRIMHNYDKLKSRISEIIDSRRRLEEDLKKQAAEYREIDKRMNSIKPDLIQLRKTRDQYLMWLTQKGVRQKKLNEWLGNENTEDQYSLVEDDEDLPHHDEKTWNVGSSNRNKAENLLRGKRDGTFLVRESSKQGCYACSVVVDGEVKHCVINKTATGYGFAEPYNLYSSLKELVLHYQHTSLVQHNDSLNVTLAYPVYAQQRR
# Chain of PI3Kα (P42336 whole entry): as the sequence (P42336 whole entry H1047R) above, with R1047H counted along it
# Chain of PI3Kα (P27986 2-724 partner): as the sequence (P27986 2-724 partner) above
IC50 [1] [nM],IC50 [2] [nM],IC50 [3] [nM],IC50 [4] [nM],SMILES
≥ 1000,≥ 1000,250 to 500,≥ 5000,"Cc1cc([C@@H](C)Nc2ccccc2S(N)(=O)=O)c2nc(N3Cc4ccc(F)cc4C3)n(C)c(=O)c2c1 (single isomer, unassigned) [Compound 104, 2-((1-(2-(5-fluoroisoindolin-2-yl)-3,6-dimethyl-4-oxo-3,4-dihydroquinazolin-8-yl)ethyl)amino) benzenesulfonamide]"
≥ 1000,≥ 1000,1000 to 5000,≥ 5000,"Cc1cc([C@@H](C)Nc2cn(C)nc2C(=O)NS(C)(=O)=O)c2nc(N3Cc4ccc(F)cc4C3)n(C)c(=O)c2c1 (single isomer, unassigned) [Compound 106, 4-((1-(2-(5-fluoroisoindolin-2-yl)-3,6-dimethyl-4-oxo-3,4-dihydroquinazolin-8-yl)ethyl)amino)-1-methyl-N-(methylsulfonyl)-1H-pyrazole-3-carboxamide]"
≥ 1000,≥ 1000,1000 to 5000,≥ 5000,"Cc1ccc(N[C@H](C)c2cccc3c(=O)n(C)c(N4Cc5ccc(F)cc5C4)nc23)c(C(=O)NS(C)(=O)=O)n1 [Compound 2, (R)-3-((1-(2-(5-fluoroisoindolin-2-yl)-3-methyl-4-oxo-3,4-dihydroquinazolin-8-yl)ethyl)amino)-6-methyl-N-(methylsulfonyl) picolinamide]"
≥ 1000,250 to 500,< 250,1000 to 5000,"C[C@@H](Nc1ccc(Cl)nc1C(=O)NS(C)(=O)=O)c1cc(F)cc2c(=O)n(C)c(N3CCC(F)(F)CC3)nc12 [Compound 3, (R)-6-chloro-3-((1-(2-(4,4-difluoropiperidin-1-yl)-6-fluoro-3-methyl-4-oxo-3,4-dihydroquinazolin-8-yl)ethyl)amino)-N-(methylsulfonyl) picolinamide]"
≥ 1000,500 to 1000,< 250,1000 to 5000,"Cc1cc([C@@H](C)Nc2ccc(Cl)nc2C(=O)NS(C)(=O)=O)c2nc(N3CCOCC3)n(C)c(=O)c2c1 [Compound 5, (R)-6-chloro-3-((1-(3,6-dimethyl-2-morpholino-4-oxo-3,4-dihydroquinazolin-8-yl)ethyl)amino)-N-(methylsulfonyl) picolinamide]"
≥ 1000,250 to 500,250 to 500,1000 to 5000,"Cc1cc([C@@H](C)Nc2ccc(Cl)nc2C(=O)NS(C)(=O)=O)c2nc(NCC3CC3)n(C)c(=O)c2c1 [Compound 8, (R)-6-chloro-3-((1-(2-((cyclopropylmethyl)amino)-3,6-dimethyl-4-oxo-3,4-dihydroquinazolin-8-yl)ethyl)amino)-N-(methylsulfonyl) picolinamide]"
≥ 1000,500 to 1000,250 to 500,1000 to 5000,"Cc1cc([C@@H](C)Nc2ccc(Cl)nc2C(=O)NS(C)(=O)=O)c2nc(N(C)C34CC(C3)C4)n(C)c(=O)c2c1 [Compound 13, (R)-3-((1-(2-(bicyclo[1.1.1]pentan-1-yl(methyl)amino)-3,6-dimethyl-4-oxo-3,4-dihydroquinazolin-8-yl)ethyl)amino)-6-chloro-N-(methylsulfonyl) picolinamide]"

# Continued, molecule first:
SMILES,IC50 [1] [nM],IC50 [2] [nM],IC50 [3] [nM],IC50 [4] [nM]
"Cc1cc([C@@H](C)Nc2ccc(Cl)nc2C(=O)NS(C)(=O)=O)c2nc(N3CCC(F)(F)C[C@@H]3C)n(C)c(=O)c2c1 (single isomer, unassigned) [Compound 42, 6-chloro-3-(((R)-1-(2-((R*)-4,4-difluoro-2-methylpiperidin-1-yl)-3,6-dimethyl-4-oxo-3,4-dihydroquinazolin-8-yl)ethyl)amino)-N-(methylsulfonyl) picolinamide]",≥ 1000,500 to 1000,250 to 500,1000 to 5000
"Cc1cc([C@H](C)Nc2ccccc2S(=O)(=O)NC(=O)C(F)F)c2nc(N3Cc4ccc(F)cc4C3)n(C)c(=O)c2c1 (single isomer, unassigned) [Compound 103, 2,2-difluoro-N-((2-((1-(2-(5-fluoroisoindolin-2-yl)-3,6-dimethyl-4-oxo-3,4-dihydroquinazolin-8-yl)ethyl)amino)phenyl)sulfonyl)acetamide]",≥ 1000,≥ 1000,1000 to 5000,≥ 5000
"Cc1cc([C@H](C)Nc2ccccc2S(N)(=O)=O)c2nc(N3Cc4ccc(F)cc4C3)n(C)c(=O)c2c1 (single isomer, unassigned) [Compound 105, 2-((1-(2-(5-fluoroisoindolin-2-yl)-3,6-dimethyl-4-oxo-3,4-dihydroquinazolin-8-yl)ethyl)amino) benzenesulfonamide]",≥ 1000,≥ 1000,1000 to 5000,≥ 5000
"Cc1cc([C@H](C)Nc2cn(C)nc2C(=O)NS(C)(=O)=O)c2nc(N3Cc4ccc(F)cc4C3)n(C)c(=O)c2c1 (single isomer, unassigned) [Compound 107, 4-((1-(2-(5-fluoroisoindolin-2-yl)-3,6-dimethyl-4-oxo-3,4-dihydroquinazolin-8-yl)ethyl)amino)-1-methyl-N-(methylsulfonyl)-1H-pyrazole-3-carboxamide]",≥ 1000,≥ 1000,1000 to 5000,≥ 5000
"Cc1cc([C@@H](C)Nc2cn(C)nc2C(N)=O)c2nc(N3Cc4ccc(F)cc4C3)n(C)c(=O)c2c1 (single isomer, unassigned) [Compound 108]",≥ 1000,≥ 1000,1000 to 5000,≥ 5000
"Cc1cc([C@@H](C)Nc2ccc(Cl)nc2C(=O)NS(C)(=O)=O)c2nc(N3Cc4cnn(C)c4C3)n(C)c(=O)c2c1 [Compound 4, (R)-6-chloro-3-((1-(3,6-dimethyl-2-(1-methyl-4,6-dihydropyrrolo[3,4-c]pyrazol-5(1H)-yl)-4-oxo-3,4-dihydroquinazolin-8-yl)ethyl)amino)-N-(methylsulfonyl) picolinamide]",≥ 1000,250 to 500,< 250,1000 to 5000
"Cc1cc([C@@H](C)Nc2ccc(Cl)nc2C(=O)NS(C)(=O)=O)c2nc(NC34CC(C3)C4)n(C)c(=O)c2c1 [Compound 6, (R)-3-((1-(2-(bicyclo[1.1.1]pentan-1-ylamino)-3,6-dimethyl-4-oxo-3,4-dihydroquinazolin-8-yl)ethyl)amino)-6-chloro-N-(methylsulfonyl) picolinamide]",≥ 1000,≥ 1000,1000 to 5000,≥ 5000
"Cc1cc([C@@H](C)Nc2ccc(Cl)nc2C(=O)NS(C)(=O)=O)c2nc(NC(C)(C)C)n(C)c(=O)c2c1 [Compound 7, (R)-3-((1-(2-(tert-butylamino)-3,6-dimethyl-4-oxo-3,4-dihydroquinazolin-8-yl)ethyl)amino)-6-chloro-N-(methylsulfonyl) picolinamide]",≥ 1000,≥ 1000,1000 to 5000,≥ 5000
"Cc1cc([C@@H](C)Nc2ccc(Cl)nc2C(=O)NS(C)(=O)=O)c2nc(N3CC4(C3)CC(F)(F)C4)n(C)c(=O)c2c1 [Compound 9, (R)-6-chloro-3-((1-(2-(6,6-difluoro-2-azaspiro[3.3]heptan-2-yl)-3,6-dimethyl-4-oxo-3,4-dihydroquinazolin-8-yl)ethyl)amino)-N-(methylsulfonyl) picolinamide]",≥ 1000,500 to 1000,250 to 500,1000 to 5000
"Cc1cc([C@@H](C)Nc2ccc(Cl)nc2C(=O)NS(C)(=O)=O)c2nc(NC3CCC3)n(C)c(=O)c2c1 [Compound 10, (R)-6-chloro-3-((1-(2-(cyclobutylamino)-3,6-dimethyl-4-oxo-3,4-dihydroquinazolin-8-yl)ethyl)amino)-N-(methylsulfonyl) picolinamide]",≥ 1000,250 to 500,1000 to 5000,≥ 5000
"Cc1cc([C@@H](C)Nc2ccc(Cl)nc2C(=O)NS(C)(=O)=O)c2nc(NC3CCCC3)n(C)c(=O)c2c1 [Compound 11, (R)-6-chloro-3-((1-(2-(cyclopentylamino)-3,6-dimethyl-4-oxo-3,4-dihydroquinazolin-8-yl)ethyl)amino)-N-(methylsulfonyl) picolinamide]",≥ 1000,250 to 500,250 to 500,≥ 5000
